Experimental data published in PubChem BioAssay (NCI).
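In this assay, cells in 96-well plates receive the compound at five concentrations for 48 hours. Endpoints are linearly interpolated between the surrounding concentrations. Definition used: TGI = concentration required for complete inhibition of growth.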

Tests used:
Assay in all cases: NCI tumour cell line growth inhibition, 48 h
HCT-15 colon = tested on: HCT-15 colon
ACHN renal = tested on: ACHN renal
SF-539 CNS = tested on: SF-539 CNS
BT-549 breast = tested on: BT-549 breast
SF-268 CNS = tested on: SF-268 CNS
MCF7 breast = tested on: MCF7 breast
HCC-2998 colon = tested on: HCC-2998 colon
K-562 leukemia = tested on: K-562 leukemia
SK-MEL-5 melanoma = tested on: SK-MEL-5 melanoma
HCT-116 colon = tested on: HCT-116 colon
HT29 colon = tested on: HT29 colon
T-47D breast = tested on: T-47D breast
HOP-92 NSCLC = tested on: HOP-92 NSCLC
RPMI-8226 leukemia = tested on: RPMI-8226 leukemia
MDA-N = tested on: MDA-N
SK-MEL-2 melanoma = tested on: SK-MEL-2 melanoma
NCI/ADR-RES ovarian = tested on: NCI/ADR-RES ovarian
OVCAR-8 ovarian = tested on: OVCAR-8 ovarian
RXF 393 renal = tested on: RXF 393 renal
MDA-MB-435 = tested on: MDA-MB-435
SN12C renal = tested on: SN12C renal
A498 renal = tested on: A498 renal
UACC-257 melanoma = tested on: UACC-257 melanoma
SK-MEL-28 melanoma = tested on: SK-MEL-28 melanoma
NCI-H226 lung = tested on: NCI-H226 lung
HL-60(TB) leukemia = tested on: HL-60(TB) leukemia
EKVX NSCLC = tested on: EKVX NSCLC
MALME-3M melanoma = tested on: MALME-3M melanoma
SK-OV-3 ovarian = tested on: SK-OV-3 ovarian
UACC-62 melanoma = tested on: UACC-62 melanoma
786-0 renal = tested on: 786-0 renal
LOX IMVI melanoma = tested on: LOX IMVI melanoma
DU-145 prostate = tested on: DU-145 prostate
NCI-H460 lung = tested on: NCI-H460 lung
OVCAR-3 ovarian = tested on: OVCAR-3 ovarian
U251 CNS = tested on: U251 CNS
NCI-H522 lung = tested on: NCI-H522 lung
NCI-H23 lung = tested on: NCI-H23 lung
SF-295 CNS = tested on: SF-295 CNS
SNB-19 CNS = tested on: SNB-19 CNS
SNB-75 CNS = tested on: SNB-75 CNS
OVCAR-4 ovarian = tested on: OVCAR-4 ovarian
KM12 colon = tested on: KM12 colon
HS 578T breast = tested on: HS 578T breast
CCRF-CEM leukemia = tested on: CCRF-CEM leukemia
CAKI-1 renal = tested on: CAKI-1 renal
OVCAR-5 ovarian = tested on: OVCAR-5 ovarian
MDA-MB-231 breast = tested on: MDA-MB-231 breast
A549 NSCLC = tested on: A549 NSCLC
UO-31 renal = tested on: UO-31 renal
COLO 205 colon = tested on: COLO 205 colon
M14 melanoma = tested on: M14 melanoma
HOP-62 NSCLC = tested on: HOP-62 NSCLC
SR leukemia = tested on: SR leukemia
PC-3 prostate = tested on: PC-3 prostate
TK-10 renal = tested on: TK-10 renal
IGROV1 ovarian = tested on: IGROV1 ovarian
SW-620 colon = tested on: SW-620 colon
MOLT-4 leukemia = tested on: MOLT-4 leukemia

COc1cc(OC)c(C2(c3c(OC(C)C)c(=O)c3=O)SCCCS2)cc1OC
TGI (HCT-15 colon): > 100 µM | TGI (ACHN renal): > 100 µM | TGI (SF-539 CNS): > 100 µM | TGI (BT-549 breast): > 100 µM | TGI (SF-268 CNS): > 100 µM | TGI (MCF7 breast): > 100 µM | TGI (HCC-2998 colon): > 100 µM | TGI (K-562 leukemia): > 100 µM | TGI (SK-MEL-5 melanoma): > 100 µM | TGI (HCT-116 colon): > 100 µM | TGI (HT29 colon): > 100 µM | TGI (T-47D breast): > 100 µM | TGI (HOP-92 NSCLC): > 100 µM | TGI (RPMI-8226 leukemia): > 100 µM | TGI (MDA-N): > 100 µM | TGI (SK-MEL-2 melanoma): > 100 µM | TGI (NCI/ADR-RES ovarian): > 100 µM | TGI (OVCAR-8 ovarian): > 100 µM | TGI (RXF 393 renal): > 100 µM | TGI (MDA-MB-435): > 100 µM | TGI (SN12C renal): > 100 µM | TGI (A498 renal): > 100 µM | TGI (UACC-257 melanoma): > 100 µM | TGI (SK-MEL-28 melanoma): > 100 µM | TGI (NCI-H226 lung): > 100 µM | TGI (HL-60(TB) leukemia): > 100 µM | TGI (EKVX NSCLC): > 100 µM | TGI (MALME-3M melanoma): > 100 µM | TGI (SK-OV-3 ovarian): > 100 µM | TGI (UACC-62 melanoma): > 100 µM | TGI (786-0 renal): > 100 µM | TGI (LOX IMVI melanoma): > 100 µM | TGI (DU-145 prostate): > 100 µM | TGI (NCI-H460 lung): > 100 µM | TGI (OVCAR-3 ovarian): > 100 µM | TGI (U251 CNS): > 100 µM | TGI (NCI-H522 lung): > 100 µM | TGI (NCI-H23 lung): > 100 µM | TGI (SF-295 CNS): > 100 µM | TGI (SNB-19 CNS): > 100 µM | TGI (SNB-75 CNS): > 100 µM | TGI (OVCAR-4 ovarian): > 100 µM | TGI (KM12 colon): > 100 µM | TGI (HS 578T breast): > 100 µM | TGI (CCRF-CEM leukemia): > 100 µM | TGI (CAKI-1 renal): > 100 µM | TGI (OVCAR-5 ovarian): > 100 µM | TGI (MDA-MB-231 breast): > 100 µM | TGI (A549 NSCLC): > 100 µM | TGI (UO-31 renal): > 100 µM | TGI (COLO 205 colon): > 100 µM | TGI (M14 melanoma): > 100 µM | TGI (HOP-62 NSCLC): > 100 µM | TGI (SR leukemia): > 100 µM | TGI (PC-3 prostate): > 100 µM | TGI (TK-10 renal): > 100 µM | TGI (IGROV1 ovarian): > 100 µM | TGI (SW-620 colon): > 100 µM

COC(=O)[C@H](Cc1c[nH]c2ccccc12)NC(=O)c1ccccc1I
TGI (HCT-15 colon): > 100 µM | TGI (ACHN renal): 30.8 µM | TGI (BT-549 breast): > 100 µM | TGI (SF-268 CNS): 47 µM | TGI (MCF7 breast): > 100 µM | TGI (HCC-2998 colon): 82.6 µM | TGI (K-562 leukemia): > 100 µM | TGI (SK-MEL-5 melanoma): 29.6 µM | TGI (HCT-116 colon): > 100 µM | TGI (HT29 colon): > 100 µM | TGI (T-47D breast): 76.2 µM | TGI (HOP-92 NSCLC): 35.2 µM | TGI (MDA-N): 42.6 µM | TGI (SK-MEL-2 melanoma): 45.8 µM | TGI (NCI/ADR-RES ovarian): > 100 µM | TGI (OVCAR-8 ovarian): > 100 µM | TGI (RXF 393 renal): 39.8 µM | TGI (MDA-MB-435): 84.5 µM | TGI (SN12C renal): > 100 µM | TGI (A498 renal): 37.4 µM | TGI (UACC-257 melanoma): 35.1 µM | TGI (SK-MEL-28 melanoma): > 100 µM | TGI (NCI-H226 lung): 82.2 µM | TGI (HL-60(TB) leukemia): 54 µM | TGI (EKVX NSCLC): > 100 µM | TGI (MALME-3M melanoma): 35.8 µM | TGI (SK-OV-3 ovarian): > 100 µM | TGI (UACC-62 melanoma): 34.1 µM | TGI (786-0 renal): 34.6 µM | TGI (LOX IMVI melanoma): 44.8 µM | TGI (DU-145 prostate): 53.9 µM | TGI (NCI-H460 lung): > 100 µM | TGI (OVCAR-3 ovarian): 33.1 µM | TGI (U251 CNS): > 100 µM | TGI (NCI-H522 lung): 30.9 µM | TGI (SF-295 CNS): > 100 µM | TGI (SNB-19 CNS): > 100 µM | TGI (SNB-75 CNS): 32.4 µM | TGI (OVCAR-4 ovarian): > 100 µM | TGI (KM12 colon): > 100 µM | TGI (HS 578T breast): 29.8 µM | TGI (CAKI-1 renal): 50.6 µM | TGI (OVCAR-5 ovarian): > 100 µM | TGI (MOLT-4 leukemia): 56.9 µM | TGI (MDA-MB-231 breast): > 100 µM | TGI (A549 NSCLC): > 100 µM | TGI (UO-31 renal): 33.4 µM | TGI (COLO 205 colon): 33.3 µM | TGI (M14 melanoma): 32.4 µM | TGI (HOP-62 NSCLC): > 100 µM | TGI (SR leukemia): 58.7 µM | TGI (PC-3 prostate): 59.3 µM | TGI (TK-10 renal): 77.3 µM | TGI (IGROV1 ovarian): > 100 µM | TGI (SW-620 colon): > 100 µM
